Data as given in patent publication US20260327240A1, “1,4-CINEOLE DERIVATIVE AND INTERMEDIATE THEREOF, HERBICIDE CONTAINING SAID DERIVATIVE AS ACTIVE INGREDIENT, METHOD FOR USING HERBICIDE, AND METHOD FOR PREPARING AGROCHEMICAL COMPOSITION” (HOKKO CHEMICAL INDUSTRY CO., LTD., priority 2023, published 2026).

Legend:
Assay type in all cases: in vivo
Scirpus juncoides [1] = experiment: Test Example 2: herbicidal effect test by application during growth period of paddy rice; settings: 7 days after sowing, 120 g per 10 ares, 14 days after application
Description: (§1) Herbicidal Effect Test by Application During Growth Period of Paddy Rice
(§2) Wagner pots with an area of 1/10,000 […] were filled with paddy soil, followed by addition of water and incorporation of chemical fertilizer (N:P:K=16:16:16), after which puddling was performed. After that, seeds of Echinochloa crus-galli var. formosensis, broad-leaved weeds (Lindemia pyxidaria, and Monochoria vaginalis), and Scirpus juncoides were sown at a depth of 0 cm to 1 cm, 30 seeds each. Immediately after sowing, the pots were flooded and a water depth of approximately 3 cm was maintained. Subsequent management was conducted in a glass greenhouse. Seven days after sowing, an emulsifiable concentrate prepared according to Formulation Example 5 using the compound shown below was diluted with water, and a specified amount of the diluted solution was applied by dropper. The amount of the active ingredient to be applied was equivalent to 120 g per 10 ares. The test was conducted in duplicate for each chemical concentration group, and the herbicidal effect was evaluated 14 days after chemical application using the same criteria as in Test Example 1.

Monochoria vaginalis [2] = experiment: as above; settings: 7 days after sowing, 120 g per 10 ares, 14 days after application
Description: as §1, §2

[3] = test system: Echinochloa crus-galli var. formosensis; experiment: as above; settings: 7 days after sowing, 120 g per 10 ares, 14 days after application
Description: as §1, §2

Digitaria ciliaris [4] = experiment: Test Example 7: herbicidal effect test by soil application in upland field; settings: 1 day after sowing, 7.5 g per 10 ares, 14 days after application
Description: (§3) Herbicidal Effect Test by Soil Application in Upland Field
(§4) Pots with an area of 36 cm^2 were filled with upland soil (alluvial loam), twenty seeds each of weeds of Digitaria ciliaris, Echinochloa crus-galli, Chenopodium album, and Amaranthus viridis were uniformly mixed with the top 1 cm layer of soil and the surface was lightly pressed down. One day after sowing, an emulsifiable concentrate prepared according to Formulation Example 5 using the compound shown below was diluted with water, and the diluted solution was sprayed onto the soil surface at a rate of 100 liters per 10 ares. The amount of the active ingredient to be applied was equivalent to 7.5 g per 10 ares. Fourteen days after chemical application, the herbicidal effect was evaluated according to the same criteria as in Test Example 1.

Echinochloa crus-galli [5] = experiment: as above; settings: 1 day after sowing, 7.5 g per 10 ares, 14 days after application
Description: as §3, §4

[6] = test system: Echinochloa crus-galli var. formosensis; experiment: Test Example 6: herbicidal effect test by application during growth period of paddy rice; settings: 7 days after sowing, 7.5 g per 10 ares, 14 days after application
Description: as §1
as §2, with “7.5” for “120”

Digitaria ciliaris [7] = experiment: Test Example 8: herbicidal effect test by stem and leaf treatment in upland field; settings: 7 days after sowing, 7.5 g per 10 ares, 14 days after application; for inhibition at 75 g/ha: Digitaria ciliaris, read-out: weed inhibition rate
Description: (§5) Herbicidal Effect Test by Stem and Leaf Treatment in Upland Field
as §4, with “Seven days” for “One day”

Echinochloa crus-galli [8] = experiment: as above; settings: 7 days after sowing, 7.5 g per 10 ares, 14 days after application
Description: as §5
as §4, with “Seven days” for “One day”

[9] = test system: Echinochloa crus-galli var. formosensis; experiment: Test Example 5: herbicidal effect test by soil application in paddy rice; settings: 7.5 g per 10 ares, 14 days after application
Description: (§6) Herbicidal Effect Test by Soil Application in Paddy Rice
as §2, with “Immediately thereafter,” for “Seven days after sowing,”, “7.5” for “120”, “ares.” for “ares. The test was conducted in duplicate for each chemical concentration group, and the herbicidal effect was evaluated 14 days after chemical application using the same criteria as in Test Example 1.”
(§7) The present test was conducted in duplicate for each chemical concentration group, and the herbicidal effect was evaluated 14 days after chemical application using the same criteria as in Test Example 1.

Digitaria ciliaris [10] = experiment: Test Example 4: herbicidal effect test by stem and leaf treatment in upland field; settings: 7 days after sowing, 120 g per 10 ares, 14 days after application
Description: as §5
as §4, with “Seven days” for “One day”, “120” for “7.5”

Echinochloa crus-galli [11] = experiment: as above; settings: 7 days after sowing, 120 g per 10 ares, 14 days after application
Description: as §5
as §4, with “Seven days” for “One day”, “120” for “7.5”

Digitaria ciliaris [12] = experiment: Test Example 3: herbicidal effect test by soil application in upland field; settings: 1 day after sowing, 120 g per 10 ares, 14 days after application
Description: as §3
as §4, with “120” for “7.5”

Echinochloa crus-galli [13] = experiment: as above; settings: 1 day after sowing, 120 g per 10 ares, 14 days after application
Description: as §3
as §4, with “120” for “7.5”

Scirpus juncoides [14] = experiment: Test Example 1: herbicidal effect test by soil application in paddy rice; settings: 120 g per 10 ares, 14 days after application
Description: as §6
as §2, with “(Lindernia pyxidaria” for “(Lindemia pyxidaria,”, “Immediately thereafter,” for “Seven days after sowing,”, “ares.” for “ares. The test was conducted in duplicate for each chemical concentration group, and the herbicidal effect was evaluated 14 days after chemical application using the same criteria as in Test Example 1.”
(§8) The present test was conducted in duplicate for each chemical concentration group, and the weed inhibition rate (%) was determined 14 days after chemical application using the following formula (Math. 1).

Monochoria vaginalis [15] = experiment: as above; settings: 120 g per 10 ares, 14 days after application
Description: as §6
as §2, with “(Lindernia pyxidaria” for “(Lindemia pyxidaria,”, “Immediately thereafter,” for “Seven days after sowing,”, “ares.” for “ares. The test was conducted in duplicate for each chemical concentration group, and the herbicidal effect was evaluated 14 days after chemical application using the same criteria as in Test Example 1.”
as §8

[16] = test system: Echinochloa crus-galli var. formosensis; experiment: as above; settings: 120 g per 10 ares, 14 days after application
Description: as §6
as §2, with “(Lindernia pyxidaria” for “(Lindemia pyxidaria,”, “Immediately thereafter,” for “Seven days after sowing,”, “ares.” for “ares. The test was conducted in duplicate for each chemical concentration group, and the herbicidal effect was evaluated 14 days after chemical application using the same criteria as in Test Example 1.”
as §8

Monochoria vaginalis [17] = experiment: Test Example 6: herbicidal effect test by application during growth period of paddy rice; settings: 7 days after sowing, 7.5 g per 10 ares, 14 days after application
Description: as §1
as §2, with “7.5” for “120”

Scirpus juncoides [18] = experiment: Test Example 5: herbicidal effect test by soil application in paddy rice; settings: 7.5 g per 10 ares, 14 days after application
Description: as §6
as §2, with “Immediately thereafter,” for “Seven days after sowing,”, “7.5” for “120”, “ares.” for “ares. The test was conducted in duplicate for each chemical concentration group, and the herbicidal effect was evaluated 14 days after chemical application using the same criteria as in Test Example 1.”
as §7

Monochoria vaginalis [19] = experiment: as above; settings: 7.5 g per 10 ares, 14 days after application
Description: as §6
as §2, with “Immediately thereafter,” for “Seven days after sowing,”, “7.5” for “120”, “ares.” for “ares. The test was conducted in duplicate for each chemical concentration group, and the herbicidal effect was evaluated 14 days after chemical application using the same criteria as in Test Example 1.”
as §7

[20] = Echinochloa crus-galli, read-out: weed inhibition rate
[21] = Digitaria ciliaris, read-out: weed inhibition rate

CC(C)[C@]12C[C@@H](OCc3ccccc3F)[C@](C)(C[C@@H]1Cl)O2 [1-12]
≥ 80%: weed inhibition rate (Scirpus juncoides [1]) | weed inhibition rate (Monochoria vaginalis [2]) | weed inhibition rate [3] | weed inhibition rate (Digitaria ciliaris [4]) | weed inhibition rate (Echinochloa crus-galli [5]) | weed inhibition rate [6] | weed inhibition rate (Digitaria ciliaris [7]) | weed inhibition rate (Echinochloa crus-galli [8]) | weed inhibition rate [9] | weed inhibition rate (Digitaria ciliaris [10]) | weed inhibition rate (Echinochloa crus-galli [11]) | weed inhibition rate (Digitaria ciliaris [12]) | weed inhibition rate (Echinochloa crus-galli [13]) | weed inhibition rate (Scirpus juncoides [14]) | weed inhibition rate (Monochoria vaginalis [15]) | weed inhibition rate [16]

CC(C)C1C[C@]2(C)O[C@@]1(C(C)C)C[C@H]2OCc1ccccc1F (stereo partly drawn) [1-133, (1S,2R,4R)-2-[(2-fluorobenzyl)oxy]-4,5-isopropyl-1-methyl-7-oxabicyclo[2.2.1]heptane]
≥ 80%: weed inhibition rate (Scirpus juncoides [1]) | weed inhibition rate (Monochoria vaginalis [2]) | weed inhibition rate [3] | weed inhibition rate (Digitaria ciliaris [4]) | weed inhibition rate (Echinochloa crus-galli [5]) | weed inhibition rate (Monochoria vaginalis [17]) | weed inhibition rate [6] | weed inhibition rate (Echinochloa crus-galli [8]) | weed inhibition rate (Scirpus juncoides [18]) | weed inhibition rate (Monochoria vaginalis [19]) | weed inhibition rate [9] | weed inhibition rate (Digitaria ciliaris [10]) | weed inhibition rate (Echinochloa crus-galli [11]) | weed inhibition rate (Digitaria ciliaris [12]) | weed inhibition rate (Echinochloa crus-galli [13]) | weed inhibition rate (Scirpus juncoides [14]) | weed inhibition rate (Monochoria vaginalis [15]) | weed inhibition rate [16]

CC(C)[C@]12C[C@@H](OCc3ccccc3C(F)(F)F)[C@](C)(C[C@@H]1Br)O2 [1-700, (1S,2R,4R,5S)-5-bromo-1-methyl-4-isopropyl-2-[[2-(trifluoromethyl)phenyl]methoxy]-7-oxabicyclo[2.2.1]heptane]
≥ 80%: inhibition at 75 g/ha (Digitaria ciliaris [7])

CC(C)[C@]12C[C@@H](OCc3ccccn3)[C@](C)(C[C@@H]1I)O2 [1-785, 2-[[(1S,2R,4R,5S)-5-iodo-4-isopropyl-1-methyl-7-oxabicyclo[2.2.1]heptan-2-yl]oxymethyl]pyridine]
≥ 80%: inhibition at 1200 g/ha (Scirpus juncoides [1]; Schoenoplectiella juncoides, read-out: weed inhibition rate) | inhibition at 1200 g/ha [3, 20] | inhibition at 75 g/ha (Digitaria ciliaris [4]; [21]) | inhibition at 75 g/ha (Echinochloa crus-galli [5]; [20]) | inhibition at 75 g/ha [6, 20] | inhibition at 75 g/ha (Digitaria ciliaris [7]) | inhibition at 75 g/ha (Echinochloa crus-galli [8]; [20]) | inhibition at 75 g/ha ([9]; Echinochloa crus-galli, 336 h, read-out: weed inhibition rate) | inhibition at 1200 g/ha (Digitaria ciliaris [10]; [21]) | inhibition at 1200 g/ha (Echinochloa crus-galli [11]; [20])

CC(=O)O[C@@H]1C[C@]2(C)O[C@@]1(C(C)C)C[C@H]2OCc1ccccc1F [1-932, [(1R,2R,4S,5R)-5-[(2-fluorophenyl)methoxy]-4-methyl-1-isopropyl-7-oxabicyclo[2.2.1]heptan-2-yl]acetate]
≥ 80%: weed inhibition rate [3] | weed inhibition rate [6] | weed inhibition rate [9] | weed inhibition rate [16]

CC(C)[C@]12C[C@@H](OCc3ccccc3F)[C@](C)(C=C1OS(=O)(=O)C(F)(F)F)O2 [3-680]
≥ 80%: weed inhibition rate (Scirpus juncoides [1]) | weed inhibition rate [3] | weed inhibition rate (Digitaria ciliaris [4]) | weed inhibition rate (Echinochloa crus-galli [5]) | weed inhibition rate [6] | weed inhibition rate (Digitaria ciliaris [7]) | weed inhibition rate (Echinochloa crus-galli [8]) | weed inhibition rate [9] | weed inhibition rate (Digitaria ciliaris [10]) | weed inhibition rate (Echinochloa crus-galli [11]) | weed inhibition rate (Digitaria ciliaris [12]) | weed inhibition rate (Echinochloa crus-galli [13]) | weed inhibition rate (Scirpus juncoides [14]) | weed inhibition rate [16]
